Measurements as given in patent US4629736A, “Fatty acid derivatives and process of producing them” (Yamanouchi Pharmaceutical Co., Ltd., priority 1983, dated 1986).

Experiments:
[1] = system: Fibrin-clot (lysis by Urokinase); test: Fibrinolytic action (fibrin-clot lysis assay), clot lysis time relative to Urokinase alone; format: biochemical
Description: FIBRINOLYTIC ACTION (Fibrin-clot lysis assay)
Fibrinogen (1 mg/50 μl, made by Green Cross Corporation) and various amounts of the test compounds, were added to test tubes, followed to make a total volume of 850 μl with cold Tris-buffered saline (20 mM Tris-buffer, pH 7.4, containing 140 mM NaCl). To the solutions were added 100 μl of Urokinase solution (30 CTA unit/0.1 ml) and 50 μl of thrombin solution (2 NIH units/50 μl) to make final clot volume of 1 ml each in test tubes in an ice bath. The tubes were quickly shaken to mix the reagents well and immediately placed in a 37° C. water bath, and the clot lysis time was recorded. Test compounds were dissolved in physiological saline, except contrast one dissolved in physiological saline containing 10% cremophore and 0.15% ethanol. Thus, by measuring the time of clot lysis, the relative activity of the fibrinolytic action of the test compound to that of Urokinase using the system of Urokinase alone as the control was determined. The results of the pharmacological effect of the compounds of this invention are shown in Table 1 below together with that of 3-hexadecanoyloctadecanoyl-β-alanyl-L-phenylalanine having the formula [drawing 15] which is one of the compounds having the most excellent fibrinolytic action in known compounds.

[2] = Solubility in saline; format: physicochemical
From the text: In particular, the compounds of this invention have been discovered after investigating the point of water solubility, which has never been attained in known acylpeptides. That is, the compounds of this invention have very improved water solubility, whereby sufficient pharmacological effect of the compounds can be expected and also the preparations of the compounds, such as the application to injections, and the like, can be easily performed. For example, the solubility of compound of Example 21 is more than 5 mg/ml saline.

[3] = system: mice; test: Acute toxicity, intravenous injection to mice; format: in vivo; settings: mouse
Description: In addition, the acute toxicity of the compound in Example 21 was measured as follows.

[4] = at 1 × 10^-5 M, solvent physiological saline solution

SMILES: CCCCCCCCCCOCCNC(=O)[C@H](CC(=O)O)NC(=O)COCCOCCCCCCCCCC [Example 14, (S)-3-(3,6-dioxahexadecanamido)-3-(3-oxatridecylcarbamoyl)propionic acid]
- Fibrinolytic Action, maximum relative activity (%) with the activity of Urokinase alone being defined to 100% [1, 4]: 150%

SMILES: CCCCCCCCCCCCCCCC(CC(=O)N[C@@H](Cc1ccccc1)C(=O)O)OC(=O)COCCOCCOCCOCCCC (stereo partly drawn) [Example 19, N-[3-(3,6,9,12-tetraoxahexadecanoyloxy)octadecanoyl]-L-phenylalnine]
- Fibrinolytic Action, maximum relative activity (%) with the activity of Urokinase alone being defined to 100% [1, 4]: 130-140%

SMILES: CCCCCCCCCCCCCCCC(CC(=O)N[C@@H](Cc1ccccc1)C(=O)O)OC(=O)COCCOCCOCCCCCC (stereo partly drawn) [Example 20, N-[3-(3,6,9-trioxapentadecanoyloxy)octadecanoyl]-L-phenylalanine]
- Fibrinolytic Action, maximum relative activity (%) with the activity of Urokinase alone being defined to 100% [1, 4]: 130-150%

SMILES: CCCCCCCCCCCCCC(CC(=O)N[C@@H](Cc1ccccc1)C(=O)O)OC(=O)COCCOCCCCCCCCCC (stereo partly drawn) [Example 21, N-[3-(3,6-dioxahexadecanoyloxy)hexadecanoyl]-L-phenylalanine]
- Fibrinolytic Action, maximum relative activity (%) with the activity of Urokinase alone being defined to 100% ([1]; at 3 × 10^-6 M, solvent physiological saline solution): 150-160%
- solubility [2]: more than 5 mg/ml saline
- acute toxicity (dose without death) [3]: higher than 200 mg/40 ml saline/kg

SMILES: CCCCCCCCCCCCCCCC(CC(=O)N[C@@H](CO)C(=O)O)OC(=O)COCCOCCCCCCCCCC (stereo partly drawn) [Example 22, N-[3-(3,6-dioxahexadecanoyloxy)octadecanoyl]-L-serine]
- Fibrinolytic Action, maximum relative activity (%) with the activity of Urokinase alone being defined to 100% ([1]; at 3 × 10^-5 M, solvent physiological saline solution): 160%

SMILES: CCCCCCCCCCCCCCCC(=O)C(CCCCCCCCCCCCCCC)CC(=O)NCCC(=O)N[C@@H](Cc1ccccc1)C(=O)O (stereo partly drawn) [Known compound, 3-hexadecanoyloctadecanoyl-β-alanyl-L-phenylalanine, reference compound]
- Fibrinolytic Action, maximum relative activity (%) with the activity of Urokinase alone being defined to 100% ([1]; at 1 × 10^-4 M, solvent Cremophore solution): 140-150%
